Experiments:
[1] = biological target: T1, Pro-thyrotropin-releasing hormone-B (Xenopus sp., UniProt Q00643)
T1 sequence (Q00643 whole entry): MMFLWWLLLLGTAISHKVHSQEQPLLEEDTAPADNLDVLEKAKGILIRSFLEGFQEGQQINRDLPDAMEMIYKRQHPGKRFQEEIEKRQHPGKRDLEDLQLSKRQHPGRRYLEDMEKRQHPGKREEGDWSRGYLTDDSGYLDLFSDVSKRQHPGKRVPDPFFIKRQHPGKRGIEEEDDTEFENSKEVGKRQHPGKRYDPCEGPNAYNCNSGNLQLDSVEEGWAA

[2] = biological target: T2, Thyrotropin-releasing hormone receptor (Xenopus laevis, UniProt Q9DDR1)
T2 sequence (Q9DDR1 whole entry): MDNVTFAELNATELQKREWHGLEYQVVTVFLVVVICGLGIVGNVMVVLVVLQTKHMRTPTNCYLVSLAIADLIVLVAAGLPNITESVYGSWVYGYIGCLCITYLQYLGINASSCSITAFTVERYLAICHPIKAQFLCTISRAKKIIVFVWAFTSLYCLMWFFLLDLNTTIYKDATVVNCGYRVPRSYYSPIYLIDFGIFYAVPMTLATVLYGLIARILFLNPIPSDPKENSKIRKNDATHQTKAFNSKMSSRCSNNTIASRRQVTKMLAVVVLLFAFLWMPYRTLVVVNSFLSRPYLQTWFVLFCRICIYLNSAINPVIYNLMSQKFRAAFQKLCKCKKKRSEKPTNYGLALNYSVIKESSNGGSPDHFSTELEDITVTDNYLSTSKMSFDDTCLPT

[3] = biological target: T3, Thyrotropin-releasing hormone receptor (Mus musculus, UniProt P21761)
T3 sequence (P21761 whole entry): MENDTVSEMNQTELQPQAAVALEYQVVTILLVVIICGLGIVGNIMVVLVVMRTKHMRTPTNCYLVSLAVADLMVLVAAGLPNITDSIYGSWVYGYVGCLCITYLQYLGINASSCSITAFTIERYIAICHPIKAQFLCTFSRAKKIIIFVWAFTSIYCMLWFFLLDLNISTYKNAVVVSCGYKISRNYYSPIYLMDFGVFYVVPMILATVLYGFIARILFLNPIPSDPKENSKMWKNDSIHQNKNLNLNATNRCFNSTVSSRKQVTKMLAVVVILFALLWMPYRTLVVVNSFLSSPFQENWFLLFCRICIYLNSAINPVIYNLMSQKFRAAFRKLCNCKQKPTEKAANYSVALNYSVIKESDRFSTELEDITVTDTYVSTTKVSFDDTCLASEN

| Ki [1] [µM] | Ki [2] [µM] | Ki [3] [µM] | SMILES |
| --- | --- | --- | --- |
| > 10 | 3 | – | NC(=O)C1CCCN1C(=O)C(Cc1cnc[nH]1)NC(=O)C1CCC(=O)C1 (stereo not given) [Desaza1TRH] |
| > 10 | > 10 | > 10 | NC(=O)C1CCCN1C(=O)C(Cc1cnc[nH]1)NC(=O)[C@@H]1CCC(=O)C1 (stereo not given in full) [Pyr3TRH] |
